Assay results published in patent US10047051B2, “Substituted pyridines and method of use” (AbbVie S.á{acute over (.)}r.l., priority 2015, dated 2018).

Legend:
CFTR ΔF508 mutant = target: T1, CFTR ΔF508 mutant (Homo sapiens, UniProt P13569, DEL508-508); assay: YFP-halide influx assay for the CFTR-ΔF508 mutation (CFBE41o- cells); type: cell-based; conditions: forskolin 10.67 μM; for EC50: from (1−F/F0) vs concentration plot
T1 construct: expressed in transfected cells; host or cells: CFBE41o- cells, adenoviral transduction
From the text: The YFP halide influx assay measured the functionality of the cystic fibrosis Transmembrane Conductance regulator (CFTR) channels in the cystic fibrosis bronchial epithelium cell line CFBE41o-. The assay was used to evaluate the capacity of compounds to increase the open probability of existing CFTR channels in the membrane. It makes use of the observation that the yellow fluorescent protein (YFP) variant YFP H148Q, I152L, F47L has its fluorescence substantially quenched by halide ions like Cl^− and I^− (Galietta, L. J. V., Haggie, P. M., Verkman, A. S., 2001. Green fluorescent protein-based halide indicators with improved chloride and iodide affinities. FEBS Lett. 499, 220-224. doi:10.1016/S0014-5793(01)02561-3; Nagai, T., Ibata, K., Park, E. S., Kubota, M., Mikoshiba, K., Miyawaki, A., 2002. A variant of yellow fluorescent protein with fast and efficient maturation for cell-biological applications. Nat. Biotechnol. 20, 87-90. doi: 10.1038/nbt0102-87).
For this purpose, CFBE41o-cells were seeded in 384 well plates (3000 CFBE cells/well). One day after seeding, the CFBE cells were transduced with adenoviral vectors that direct the expression of the CFTR ΔF508 mutant and of the YFP reporter. Cells were incubated at 27° C., 5% CO2 for 24 hours so as to allow for the proper folding and migration to the membrane of the CFTR channel or treated with a CFTR modulator during 24 hours at 37° C.
(§1) The I-induced quenching of fluorescence was recorded on an immediately after injection of iodide for 2 minutes on an FDSS/μCell (Hamamatsu). The capacity of a compound to increase the channel opening was directly correlated with the decrease in fluorescence, and was expressed as (1−(fluorescence after 36 seconds (F)/fluorescence before injection (F0))) and an EC50 was derived from a (1−F/F0) vs compound concentration plot.

CFTR G551D mutant = target: T2, CFTR G551D mutant (Homo sapiens, UniProt P13569, G551D); assay: YFP-halide influx assay for the CFTR-G551D mutation (HEK293 cells); type: cell-based; conditions: forskolin 10.67 μM
T2 construct: expressed in transfected cells; host or cells: HEK293 cells, reverse transfection with plasmids
From the text: The YFP halide influx assay measured the functionality of the cystic fibrosis Transmembrane Conductance regulator (CFTR) channels. The assay was used to evaluate the capacity of compounds to increase the channel opening of existing mutant CFTR channels in the membrane. It makes use of the observation that the yellow fluorescent protein (YFP) variant YFP H148Q, I152L, F47L has its fluorescence substantially quenched by halide ions like Cl^− and I^− (Galietta, L. J. V., Haggie, P. M., Verkman, A. S., 2001. Green fluorescent protein-based halide indicators with improved chloride and iodide affinities. FEBS Lett. 499, 220-224. doi:10.1016/S0014-5793(01)02561-3).
For this purpose, HEK293-cells were seeded in 96 well plates. During seeding, the cells were reverse-transfected with plasmid vectors that direct the expression of the CFTR G551D mutant and of the YFP reporter. Cells were incubated at 37° C., 5% CO2 for 24 hours so as to allow for sufficient expression of the CFTR protein.
as §1, with “I^−-induced” for “I-induced”, “recorded” for “recorded on an”, “I^−” for “iodide”, “7 seconds.” for “2 minutes on an FDSS/μCell (Hamamatsu).”, “7” for “36”

T2 sequence (P13569 whole entry G551D): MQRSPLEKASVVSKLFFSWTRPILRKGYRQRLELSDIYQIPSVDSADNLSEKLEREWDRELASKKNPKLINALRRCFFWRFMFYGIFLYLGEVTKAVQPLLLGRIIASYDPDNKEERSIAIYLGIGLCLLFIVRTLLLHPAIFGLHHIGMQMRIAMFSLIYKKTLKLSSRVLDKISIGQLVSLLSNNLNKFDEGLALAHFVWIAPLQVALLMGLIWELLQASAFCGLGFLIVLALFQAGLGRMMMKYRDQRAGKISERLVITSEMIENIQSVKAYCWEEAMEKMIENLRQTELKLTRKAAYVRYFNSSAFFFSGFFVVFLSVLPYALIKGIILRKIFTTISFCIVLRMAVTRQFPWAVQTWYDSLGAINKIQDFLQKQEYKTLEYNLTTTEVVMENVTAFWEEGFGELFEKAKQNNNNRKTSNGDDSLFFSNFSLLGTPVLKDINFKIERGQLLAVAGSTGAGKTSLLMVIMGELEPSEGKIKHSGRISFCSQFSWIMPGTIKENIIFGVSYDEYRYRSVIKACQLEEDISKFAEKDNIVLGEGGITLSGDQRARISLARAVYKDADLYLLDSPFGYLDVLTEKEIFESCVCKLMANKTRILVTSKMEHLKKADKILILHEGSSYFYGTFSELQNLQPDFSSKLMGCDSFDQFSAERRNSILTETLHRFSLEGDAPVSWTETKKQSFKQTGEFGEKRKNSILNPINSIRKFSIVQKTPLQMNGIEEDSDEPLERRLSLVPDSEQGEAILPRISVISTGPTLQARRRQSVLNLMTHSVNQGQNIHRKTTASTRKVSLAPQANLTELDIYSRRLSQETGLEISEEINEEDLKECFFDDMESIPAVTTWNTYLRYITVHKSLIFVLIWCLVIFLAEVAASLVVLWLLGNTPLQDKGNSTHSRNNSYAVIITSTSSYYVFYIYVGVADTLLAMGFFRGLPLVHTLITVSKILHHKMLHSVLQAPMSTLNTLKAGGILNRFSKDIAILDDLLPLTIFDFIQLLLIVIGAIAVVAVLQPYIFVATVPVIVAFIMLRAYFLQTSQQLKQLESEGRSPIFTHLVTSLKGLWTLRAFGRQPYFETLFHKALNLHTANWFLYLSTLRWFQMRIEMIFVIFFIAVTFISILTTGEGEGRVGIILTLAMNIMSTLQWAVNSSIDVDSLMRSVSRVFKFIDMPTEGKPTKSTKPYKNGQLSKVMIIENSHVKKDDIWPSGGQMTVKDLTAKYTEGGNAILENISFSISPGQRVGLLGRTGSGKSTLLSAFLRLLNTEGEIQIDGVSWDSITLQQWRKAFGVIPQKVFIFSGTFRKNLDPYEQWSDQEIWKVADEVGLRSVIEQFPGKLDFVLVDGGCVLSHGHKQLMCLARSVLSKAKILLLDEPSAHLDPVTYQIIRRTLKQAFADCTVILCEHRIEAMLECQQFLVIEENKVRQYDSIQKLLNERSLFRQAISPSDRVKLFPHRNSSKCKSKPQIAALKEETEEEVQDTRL
T1 sequence (P13569 with tags, fused parts or gaps DEL508-508): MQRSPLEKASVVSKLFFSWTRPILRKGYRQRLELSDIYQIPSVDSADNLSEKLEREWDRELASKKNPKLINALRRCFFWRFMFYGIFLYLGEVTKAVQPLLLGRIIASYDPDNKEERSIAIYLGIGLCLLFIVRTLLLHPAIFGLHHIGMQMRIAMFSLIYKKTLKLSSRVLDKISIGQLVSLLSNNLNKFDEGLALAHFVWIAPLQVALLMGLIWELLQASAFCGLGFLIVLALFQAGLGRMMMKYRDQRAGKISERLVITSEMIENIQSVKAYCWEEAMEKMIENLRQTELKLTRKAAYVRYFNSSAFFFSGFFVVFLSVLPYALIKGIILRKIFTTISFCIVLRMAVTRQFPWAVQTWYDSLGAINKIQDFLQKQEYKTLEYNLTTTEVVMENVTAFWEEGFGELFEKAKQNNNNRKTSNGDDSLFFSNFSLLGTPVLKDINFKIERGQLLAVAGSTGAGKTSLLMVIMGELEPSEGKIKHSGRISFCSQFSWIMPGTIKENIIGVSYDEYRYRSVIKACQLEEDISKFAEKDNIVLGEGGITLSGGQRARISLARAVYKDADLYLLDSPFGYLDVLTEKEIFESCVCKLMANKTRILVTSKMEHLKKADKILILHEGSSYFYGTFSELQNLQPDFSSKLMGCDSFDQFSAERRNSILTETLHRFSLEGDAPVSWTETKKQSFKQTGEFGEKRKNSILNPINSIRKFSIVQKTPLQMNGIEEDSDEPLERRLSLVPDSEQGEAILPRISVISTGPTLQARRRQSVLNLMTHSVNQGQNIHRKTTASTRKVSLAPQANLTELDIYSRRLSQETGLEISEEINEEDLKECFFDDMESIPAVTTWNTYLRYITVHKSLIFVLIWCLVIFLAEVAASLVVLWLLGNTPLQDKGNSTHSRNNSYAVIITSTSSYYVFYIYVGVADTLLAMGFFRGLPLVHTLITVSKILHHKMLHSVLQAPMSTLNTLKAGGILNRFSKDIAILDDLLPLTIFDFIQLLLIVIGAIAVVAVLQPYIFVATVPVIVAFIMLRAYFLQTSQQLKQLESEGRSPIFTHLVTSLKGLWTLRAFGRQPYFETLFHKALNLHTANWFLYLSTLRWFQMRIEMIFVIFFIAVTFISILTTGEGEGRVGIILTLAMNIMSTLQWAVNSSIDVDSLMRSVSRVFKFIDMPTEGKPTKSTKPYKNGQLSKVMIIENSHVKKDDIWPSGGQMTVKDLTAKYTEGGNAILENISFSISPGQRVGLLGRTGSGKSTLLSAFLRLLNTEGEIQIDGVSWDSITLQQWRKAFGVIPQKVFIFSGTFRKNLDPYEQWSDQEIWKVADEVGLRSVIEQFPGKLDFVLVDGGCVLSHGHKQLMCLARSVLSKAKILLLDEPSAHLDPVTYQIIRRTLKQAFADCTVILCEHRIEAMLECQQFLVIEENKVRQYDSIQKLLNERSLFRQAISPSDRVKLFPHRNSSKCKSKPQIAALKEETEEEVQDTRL

Row | Structure (SMILES) | % Activation (CFTR ΔF508 mutant) [%] | EC50 (CFTR ΔF508 mutant) [nM] | % Activation (CFTR G551D mutant) [%] | EC50 (CFTR G551D mutant) [nM]
1 | Nc1cc(S(=O)(=O)c2ccc(OC(F)(F)F)cc2)cnc1C(=O)NCC(O)C1CCOCC1 (centres unmarked) [Compound 35, 3-amino-N-[2-hydroxy-2-(tetrahydro-2H-pyran-4-yl)ethyl]-5-{[4-(trifluoromethoxy)phenyl]sulfonyl}pyridine-2-carboxamide] | 110.4 | 84.7 | 78.7 | 2390
2 | CC(C)(O)CNC(=O)c1ncc(S(=O)(=O)c2cccc(F)c2)cc1N [Compound 39, 3-amino-5-[(3-fluorophenyl)sulfonyl]-N-(2-hydroxy-2-methylpropyl)pyridine-2-carboxamide] | 42.5 | 155 | 5.0 | > 10000
3 | COC1CN(C(=O)c2ncc(S(=O)(=O)c3ccc(OC(F)(F)F)cc3)cc2N)C1 [Compound 42, (3-amino-5-{[4-(trifluoromethoxy)phenyl]sulfonyl}pyridin-2-yl)(3-methoxyazetidin-1-yl)methanone] | 105.5 | 37.1 | 64.3 | > 3330
4 | CC(C)C[C@H](CO)NC(=O)c1ncc(S(=O)(=O)c2ccc(OC(F)(F)F)cc2)cc1N [Compound 46, 3-amino-N-[(2R)-1-hydroxy-4-methylpentan-2-yl]-5-{[4-(trifluoromethoxy)phenyl]sulfonyl}pyridine-2-carboxamide] | 41.4 | 1160 | 3.5 | > 10000
5 | Nc1cc(S(=O)(=O)c2ccc(OC(F)(F)F)cc2)cnc1C(=O)NC[C@@H](O)CO [Compound 50, 3-amino-N-[(2R)-2,3-dihydroxypropyl]-5-{[4-(trifluoromethoxy)phenyl]sulfonyl}pyridine-2-carboxamide] | 90.8 | 57.5 | 23.5 | > 10000
6 | CC(C)(O)CCNC(=O)c1ncc(S(=O)(=O)c2ccc(OC(F)(F)F)cc2)cc1N [Compound 51, 3-amino-N-(3-hydroxy-3-methylbutyl)-5-{[4-(trifluoromethoxy)phenyl]sulfonyl}pyridine-2-carboxamide] | 96.8 | 30.2 | 51.2 | 1130
7 | C[C@H](O)CCNC(=O)c1ncc(S(=O)(=O)c2ccc(OC(F)(F)F)cc2)cc1N [Compound 53, 3-amino-N-[(3S)-3-hydroxybutyl]-5-{[4-(trifluoromethoxy)phenyl]sulfonyl}pyridine-2-carboxamide] | 95.6 | 41.4 | 54.0 | 1820
8 | COCC(O)CCNC(=O)c1ncc(S(=O)(=O)c2ccc(OC(F)(F)F)cc2)cc1N (centres unmarked) [Compound 54, 3-amino-N-(3-hydroxy-4-methoxybutyl)-5-{[4-(trifluoromethoxy)phenyl]sulfonyl}pyridine-2-carboxamide] | 89.2 | 72.9 | 62.6 | 1660
9 | Nc1cc(S(=O)(=O)c2ccc(OC(F)(F)F)cc2)cnc1C(=O)NCC(=O)NC1CC1 [Compound 58, 3-amino-N-[2-(cyclopropylamino)-2-oxoethyl]-5-{[4-(trifluoromethoxy)phenyl]sulfonyl}pyridine-2-carboxamide] | 92.2 | 20.6 | 42.3 | 1070
10 | Nc1cc(S(=O)(=O)c2ccc(OC(F)(F)F)cc2)cnc1C(=O)N1CC(N2CCOCC2)C1 [Compound 60, (3-amino-5-{[4-(trifluoromethoxy)phenyl]sulfonyl}pyridin-2-yl)[3-(morpholin-4-yl)azetidin-1-yl]methanone] | 105.0 | 67.2 | 71.1 | 3120
11 | N#CC1CN(C(=O)c2ncc(S(=O)(=O)c3ccc(OC(F)(F)F)cc3)cc2N)C1 [Compound 61, 1-[(3-amino-5-{[4-(trifluoromethoxy)phenyl]sulfonyl}pyridin-2-yl)carbonyl]azetidine-3-carbonitrile] | 101.0 | 60.9 | 70.0 | 2730
12 | CN(C)C(=O)C1CN(C(=O)c2ncc(S(=O)(=O)c3ccc(OC(F)(F)F)cc3)cc2N)C1 [Compound 62, 1-[(3-amino-5-{[4-(trifluoromethoxy)phenyl]sulfonyl}pyridin-2-yl)carbonyl]-N,N-dimethylazetidine-3-carboxamide] | 91.8 | 140 | 49.3 | 1390
13 | Nc1cc(S(=O)(=O)c2ccc(C(F)(F)F)cc2)cnc1C(=O)NC[C@H](O)C(F)(F)F [Compound 64, 3-amino-N-[(2S)-3,3,3-trifluoro-2-hydroxypropyl]-5-{[4-(trifluoromethyl)phenyl]sulfonyl}pyridine-2-carboxamide] | 107.0 | 1.3 | 72.5 | 160
14 | Nc1cc(S(=O)(=O)c2ccc(OC(F)(F)F)cc2)cnc1C(=O)N1CCC1 [Compound 65, (3-amino-5-{[4-(trifluoromethoxy)phenyl]sulfonyl}pyridin-2-yl)(azetidin-1-yl)methanone] | 119.0 | 41.4 | 67.8 | 1160
15 | Nc1cc(S(=O)(=O)c2ccc(OC(F)(F)F)cc2)cnc1C(=O)N1CC(CO)C1 [Compound 66, (3-amino-5-{[4-(trifluoromethoxy)phenyl]sulfonyl}pyridin-2-yl)[3-(hydroxymethyl)azetidin-1-yl]methanone] | 106.0 | 12.5 | 60.8 | 1550
16 | Nc1cc(S(=O)(=O)c2ccc(OC(F)(F)F)cc2)cnc1C(=O)N1CC(F)C1 [Compound 67, (3-amino-5-{[4-(trifluoromethoxy)phenyl]sulfonyl}pyridin-2-yl)(3-fluoroazetidin-1-yl)methanone] | 110.0 | 25.8 | 73.6 | 1590
17 | Nc1cc(S(=O)(=O)c2ccc(OC(F)(F)F)cc2)cnc1C(=O)N1CC2(COC2)C1 [Compound 68, (3-amino-5-{[4-(trifluoromethoxy)phenyl]sulfonyl}pyridin-2-yl)(2-oxa-6-azaspiro[3.3]hept-6-yl)methanone] | 92.0 | 130 | 54.0 | 1820
18 | COC[C@H](O)CNC(=O)c1ncc(S(=O)(=O)c2ccc(OC(F)(F)F)cc2)cc1N [Compound 69, 3-amino-N-[(2R)-2-hydroxy-3-methoxypropyl]-5-{[4-(trifluoromethoxy)phenyl]sulfonyl}pyridine-2-carboxamide] | 102.0 | 5.7 | 85.0 | 1080
19 | Nc1cc(S(=O)(=O)c2ccc(F)cc2)cnc1C(=O)NCCC(O)C(F)(F)F (centres unmarked) [Compound 72, 3-amino-5-[(4-fluorophenyl)sulfonyl]-N-(4,4,4-trifluoro-3-hydroxybutyl)pyridine-2-carboxamide] | 89.3 | 21.8 | 44.2 | > 3330
20 | Nc1cc(S(=O)(=O)c2ccc(OC(F)(F)F)cc2)cnc1C(=O)NCC(O)C1CCOC1 (centres unmarked) [Compound 73, 3-amino-N-[2-hydroxy-2-(tetrahydrofuran-3-yl)ethyl]-5-{[4-(trifluoromethoxy)phenyl]sulfonyl}pyridine-2-carboxamide] | 102.0 | 81.4 | 61.0 | > 3330
